The supplement of paper PMC5580409

These molecules were tested on Plasmodium falciparum 3D7 (assay: pEC50, asexual blood-stage growth inhibition). Conditions: 72 h.
Method: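 Held-out test set measured in the Guy lab in 2014 with the same procedure as the primary St. Jude screen. P. falciparum 3D7 blood-stage culture (2% hematocrit, 1% parasitemia) was treated with compound for 72 h at 37 °C, and growth was read by SYBR Green I fluorescence. EC50 came from a four-parameter Hill fit over a 10-point dilution series […].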

SMILES | pEC50
CCOC(=O)c1cnc2c(C)cccc2c1Nc1cccc(C(C)=O)c1 | 5.35
CN(C)c1ccc(NC(=O)C2CC2c2ccccc2)cc1 (stereo not drawn) | < 4.82
CN1CCN(CC(O)Cn2c3ccccc3c3cc(Cl)ccc32)CC1 (stereo not drawn) | < 4.82
OCC(O)Cn1c2ccc(Br)cc2c2cc(Br)ccc21 (stereo not drawn) | < 4.82
CCCn1c(=N)n(CC(O)COc2ccc(Cl)cc2)c2ccccc21 (stereo not drawn) | < 4.82
Cc1cccc(Oc2c(C(F)(F)F)oc3c(CN4CCCC4)c(O)ccc3c2=O)c1 | < 4.82
Cc1cccc(C2(c3cccc(C)c3)CC2C(=O)Nc2ccc([N+](=O)[O-])cc2O)c1 (stereo not drawn) | 5.36
COc1ccc(C2CC(=O)NC3=C2C(=O)CC(c2ccc(OC)c(OC)c2)C3)c(OC)c1 (stereo not drawn) | < 4.82
CC(C)(C)NC(=O)c1cn(C2CCCCC2)cc(C(=O)NC2CCN(Cc3ccccc3)CC2)c1=O | < 4.82
CN(C)c1ccc(NC(=O)/C=C/c2ccccc2Cl)cc1 | 4.99
CCCCNCC(O)COc1ccc(Cl)c(C)c1 (stereo not drawn) | 5.14
OC(CNCCc1ccccc1)Cn1c2ccc(Br)cc2c2cc(Br)ccc21 (stereo not drawn) | 5.81
CN1CCN([C@@H]2CCN(Cc3cc(Cl)ccc3O)C[C@H]2O)CC1 | < 4.82
Cc1cccc(NC(=O)CSc2nc(C)c(C)n2-c2ccccc2)c1C | < 4.82
CCN1/C(=C/c2sc3ccc(O)cc3[n+]2CC)C=Cc2cc(C)ccc21 | 6.3
O=C(NCC1CCCCC1)c1cn(C2CC2)cc(C(=O)NC2CCN(Cc3ccccc3)CC2)c1=O | < 4.82
CC1CCN(CC(O)Cn2c3ccc(Cl)cc3c3cc(Cl)ccc32)CC1 (stereo not drawn) | < 4.82
N=c1n(CCN2CCCC2)c2ccccc2n1CC(O)c1ccc(Cl)c(Cl)c1 (stereo not drawn) | 5.88
Cc1ccc(NC(=O)/C=C/c2ccccc2Cl)cc1 | 5.46
O=C(NCC1CCCCC1)c1cn(C2CC2)cc(C(=O)NC2CCN(Cc3ccccc3)C2)c1=O (stereo not drawn) | < 4.82
OCCC1CN(Cc2cc(Cl)ccc2O)CCN1CCc1ccccc1 (stereo not drawn) | < 4.82
CC(C)(C)NCC(O)Cn1c2ccccc2c2ccccc21 (stereo not drawn) | 5.21

SMILES | pEC50
Cc1ccccc1OCC(O)CNC1CCCCC1 (stereo not drawn) | < 4.82
O=C(Nc1ccc([N+](=O)[O-])cc1O)C1CC1(c1ccccc1)c1ccccc1 (stereo not drawn) | < 4.82
COc1ccc(C2CC(=O)C3=C(C2)NC(=O)CC3c2ccc(Cl)cc2Cl)cc1OC (stereo not drawn) | 5.7
O=C1CC(c2c(F)cccc2Cl)C2=C(CC(c3ccc(F)cc3)CC2=O)N1 (stereo not drawn) | < 4.82
COc1ccccc1-c1c(C(F)(F)F)oc2c(CN3CCCC3)c(O)ccc2c1=O | < 4.82
CCC(C)c1ccc(NC(=O)/C=C/c2cccc(Cl)c2)cc1 (stereo not drawn) | < 4.82
N=c1n(CCN2CCCCC2)c2ccccc2n1CC(O)COc1ccc(Cl)cc1 (stereo not drawn) | 5.33
CCOC(=O)c1cnc2c(Cl)cccc2c1Nc1cccc(C(C)=O)c1 | 5.35
CCOc1ccc(NCC(O)Cn2c3ccc(Cl)cc3c3cc(Cl)ccc32)cc1 (stereo not drawn) | 5.13
Cc1ccc2[nH]c(-c3ccc(Br)cc3)nc2c1 | < 4.82
COc1c(O)ccc(/C=N/NC(=O)C2CC2(c2ccccc2)c2ccccc2)c1[N+](=O)[O-] (stereo not drawn) | < 4.82
CCOC(=O)c1ccc(NC(=O)CC2C(=O)N(c3ccc(OC)cc3)C(=O)N2CCC(C)C)cc1 (stereo not drawn) | < 4.82
CCCCNC(=O)c1cn(C2CCCCC2)cc(C(=O)NC2CCN(Cc3ccccc3)C2)c1=O (stereo not drawn) | < 4.82
COCCOC(=O)C1=C(C)NC2=C(C(=O)CC(c3ccc(OC)cc3)C2)C1c1ccc(Cl)cc1 (stereo not drawn) | 6.17
Cc1cccc(NC(=O)/C=C/c2ccccc2Cl)c1 | < 4.82
Oc1ccc(Br)cc1CN1CCN(C2CCCCCC2)CC1 | 6.34
COc1ccc(CN2CCCn3c4c(c5cc(C)ccc53)CCCC42)cc1O (stereo not drawn) | < 4.82
COc1ccccc1-c1cc(C(=O)N2CCC(Cc3ccccc3)CC2)c2ccccc2n1 | < 4.82
Cn1nccc1C(=O)Nc1cc(Oc2ccc(Cl)cc2)cc([N+](=O)[O-])c1 | < 4.82
Nc1ccc(C(=O)Nc2ccc(-c3nc4cc(NC(=O)c5ccc(N)cc5)ccc4[nH]3)cc2)cc1 | < 4.82
CCOC(=O)C1=C(C)NC2=C(C(=O)CC(c3ccc(Cl)cc3)C2)C1c1ccc(OC)cc1 (stereo not drawn) | 5.93
